Data published in ChEMBL document CHEMBL1129469, “Nonpeptide angiotensin II receptor antagonists: the next generation in antihypertensive therapy” (J Med Chem, 1996).
Each block holds one compound with its values, some of them ahead of it.

Assays:
[1] = test system: Rattus norvegicus; test: Percent inhibition was evaluated to inhibit Ang II pressor response in conscious rats at oral dose 1 mg/kg; assay type: functional
[2] = molecular target: T1, Angiotensin II receptor (AT-1) type-1 (Rattus norvegicus, UniProt P29089+P25095); test: In vitro antagonistic potency against Angiotensin II receptor, type 1 in rat liver; assay type: functional, tissue-based
T1 sequence (P29089 whole entry): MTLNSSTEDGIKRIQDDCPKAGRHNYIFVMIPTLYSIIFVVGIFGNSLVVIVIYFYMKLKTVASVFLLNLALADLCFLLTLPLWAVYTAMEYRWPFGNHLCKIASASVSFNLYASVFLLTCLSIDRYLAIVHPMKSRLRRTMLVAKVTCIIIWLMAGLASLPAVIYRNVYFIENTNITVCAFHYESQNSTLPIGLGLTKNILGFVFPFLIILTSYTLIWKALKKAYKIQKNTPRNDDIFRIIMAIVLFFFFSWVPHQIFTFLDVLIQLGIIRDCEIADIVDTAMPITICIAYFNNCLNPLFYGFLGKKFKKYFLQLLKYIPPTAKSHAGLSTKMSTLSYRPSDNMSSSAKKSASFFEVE
T1 sequence (P25095 whole entry): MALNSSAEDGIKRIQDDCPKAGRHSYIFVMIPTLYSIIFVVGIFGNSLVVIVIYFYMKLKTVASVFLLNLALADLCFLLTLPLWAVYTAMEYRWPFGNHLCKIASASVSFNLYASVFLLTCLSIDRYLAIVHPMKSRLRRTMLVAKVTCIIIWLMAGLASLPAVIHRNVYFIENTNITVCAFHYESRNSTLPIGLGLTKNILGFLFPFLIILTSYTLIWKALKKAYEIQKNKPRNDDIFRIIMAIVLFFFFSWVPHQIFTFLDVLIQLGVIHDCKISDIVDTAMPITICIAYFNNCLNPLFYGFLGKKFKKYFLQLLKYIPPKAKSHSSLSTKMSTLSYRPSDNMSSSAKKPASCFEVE

[3] = organism: Rattus norvegicus; test: Oral effective dose required for lowering blood pressure in spontaneous hypertensive rats (SHR); assay type: functional
[4] = organism: Rattus norvegicus; test: Oral effective dose required for lowering blood pressure in renal hypertensive rats (RHR); assay type: functional
[5] = organism: Oryctolagus cuniculus; test: Inhibitory activity against angiotensin II type 1 induced contractions in rabbit aorta; assay type: functional
[6] = organism: Oryctolagus cuniculus; test: (§1) Compound was tested for its antagonistic activity against angiotensin II-induced contractions in rabbit aorta; assay type: functional
[7] = Oral bioavailability was evaluated in rat by oral administration; assay type: ADME, organism-based; details: in vivo
[8] = Oral bioavailability in rat; assay type: ADME, organism-based; details: in vivo
[9] = organism: Rattus norvegicus; test: pA2 value was evaluated against angiotensin II-induced aldosterone release in rat adrenal cortical cells; assay type: functional, cell-based; details: read-out: pA2 (converted)
[10] = test system: Rattus norvegicus; test: Oral effective dose required for inhibition of Ang II pressor response in conscious rat; assay type: functional
[11] = Oral bioavailability was evaluated in rhesus monkey; assay type: ADME, organism-based, Macaca mulatta; details: in vivo
[12] = test system: Rattus norvegicus; test: Intravenous effective dose required for inhibition of Ang II pressor response in conscious rat; assay type: functional
[13] = test system: Rattus norvegicus; test: Dose dependent inhibition of pressor responses to Ang-II receptor in conscious normotensive rat by intraduodenal administration; assay type: functional; details: read-out: ID50 (the source's name)
[14] = test system: Rattus norvegicus; test: Dose dependent inhibition of pressor responses to Ang-II in conscious normotensive rat by bolus intravenous administration; assay type: functional; details: read-out: ID50 (the source's name)
[15] = test system: HASMC; test: Inhibitory activity against Ang II-induced proliferation of human aortic smooth muscle cells in a dose-dependent manner; assay type: functional, cell-based
[16] = organism: Oryctolagus cuniculus; test: as §1; assay type: functional, organism-based
[17] = molecular target: T1, Angiotensin II receptor (AT-1) type-1; test: Inhibitory activity against Angiotensin II receptor, type 1 in rat aortic membrane; assay type: cell membranes
[18] = molecular target: T2, Type-2 angiotensin II receptor (Homo sapiens, UniProt P50052); test: Ki value was evaluated against Angiotensin II receptor, type 2
T2 sequence (P50052 whole entry): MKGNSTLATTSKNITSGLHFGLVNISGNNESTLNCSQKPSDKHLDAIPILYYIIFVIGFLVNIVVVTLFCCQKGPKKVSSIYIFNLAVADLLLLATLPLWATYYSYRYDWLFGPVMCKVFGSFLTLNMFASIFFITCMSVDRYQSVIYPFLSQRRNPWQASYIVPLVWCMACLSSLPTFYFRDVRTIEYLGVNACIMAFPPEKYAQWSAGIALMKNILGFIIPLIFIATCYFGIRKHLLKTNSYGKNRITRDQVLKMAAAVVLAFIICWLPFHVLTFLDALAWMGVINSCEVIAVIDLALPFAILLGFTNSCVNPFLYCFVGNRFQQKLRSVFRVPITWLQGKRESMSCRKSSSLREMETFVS

[19] = test system: Rattus norvegicus; test: Intravenous effective dose required for lowering blood pressure in renal hypertensive rats (RHR); assay type: functional
[20] = molecular target: T3, Type-1 angiotensin II receptor (Homo sapiens, UniProt P30556); test: Ki value was evaluated against Angiotensin II receptor, type 1
T3 sequence (P30556 whole entry): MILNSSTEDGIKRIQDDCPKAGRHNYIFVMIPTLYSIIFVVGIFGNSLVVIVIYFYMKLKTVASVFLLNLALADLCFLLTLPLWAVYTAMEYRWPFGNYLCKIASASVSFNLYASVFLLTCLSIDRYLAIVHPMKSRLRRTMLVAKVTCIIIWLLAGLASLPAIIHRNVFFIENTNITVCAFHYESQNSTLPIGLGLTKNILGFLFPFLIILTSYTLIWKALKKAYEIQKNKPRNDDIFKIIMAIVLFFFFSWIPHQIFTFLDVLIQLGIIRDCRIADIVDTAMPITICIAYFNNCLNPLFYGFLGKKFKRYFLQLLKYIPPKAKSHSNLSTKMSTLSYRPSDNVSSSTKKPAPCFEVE

[21] = molecular target: T1, Angiotensin II receptor (AT-1) type-1; test: In vitro antagonistic potency against Angiotensin II receptor, type 1 in rat adrenal cortex; assay type: functional, tissue-based
[22] = test system: Rattus norvegicus; test: Intravenous effective dose against Ang II-induced pressor responses in conscious rats; assay type: functional
[23] = test system: Canis familiaris; test: Compound at an oral dose of 30 mg/Kg was tested for the inhibition of Ang-II induced pressor responses in conscious dog; assay type: functional; details: Canis lupus familiaris
[24] = test system: HASMC; test: Inhibitory activity against Ang II-induced proliferation of human aortic smooth muscle cells in a dose dependent manner; assay type: functional, cell-based
[25] = test system: Rattus norvegicus; test: Oral effective dose required for inhibition of pressor response in conscious rats; assay type: functional

Structure (SMILES): CCCCc1nc2ccc(NC(=O)N(C)C(C)C)cc2c(=O)n1Cc1ccc(-c2ccccc2-c2nn[nH]n2)cc1
inhibition in vivo at 1 mg/kg [1]: 84%

Structure (SMILES): CCCCc1ncc(/C=C(\Cc2cccs2)C(=O)O)n1Cc1ccc(C(=O)O)cc1 [EPROSARTAN]
ED50 [13]: 5.5 mg/kg
ED50 [14]: 0.08 mg/kg

Structure (SMILES): CCCCc1nc(CCCC)n(Cc2ccc(-c3ccccc3-c3nnn[nH]3)nc2)n1 [FORASARTAN]
inhibition in vivo at 30 mg/kg [23]: 91%

Structure (SMILES): CCCCc1nc(Cl)c(CO)n1Cc1ccc(-c2ccccc2-c2nnn[nH]2)cc1 [LOSARTAN]
IC50 [24]: 0.71 nM
Kb [6]: 22 nM
pKB [6]: 8.2
ED30 [19]: 0.78 mg/kg
ED30 [4]: 0.59 mg/kg

Structure (SMILES): CCCCc1nc(Cl)c(C(=O)OC(C)OC(=O)OCC)n1Cc1ccc(-c2ccccc2-c2nn[nH]n2)cc1 (stereo unspecified)
ED50 [25]: 0.5 mg/kg

The next lines start with results.

Log Ki [2]: -8.7
Structure (SMILES): COc1c(OCc2ccc(-c3ccccc3-c3nn[nH]n3)cc2)cc(C)nc1C
ED50 [3]: 0.48 mg/kg
ED50 [4]: 2.5 mg/kg

IC50 [5]: 0.3 nM
Structure (SMILES): CCOc1nc2cccc(C(=O)O)c2n1Cc1ccc(-c2ccccc2-c2nnn[nH]2)cc1

bioavailability [7]: 70%
bioavailability [8]: 100%
bioavailability [11]: 32%
Structure (SMILES): CCc1nc2c(C)cc(C)nc2n1Cc1ccc(-c2ccccc2-c2nn[nH]n2)cc1 [L-158809]
Kb [6]: 0.28 nM
pKB [6]: 9.3
Kb [9]: 0.0316 nM
ED50 [10]: 0.023 mg/kg
ED50 [12]: 0.029 mg/kg

IC50 [16]: 4 nM
Structure (SMILES): CCCCC1=NC2(CCCC2)C(=O)N1Cc1ccc(-c2ccccc2-c2nnn[nH]2)cc1 [IRBESARTAN]
IC50 [15]: 320 nM

IC50 [17]: 2.7 nM
Structure (SMILES): CCCCC(=O)N(Cc1ccc(-c2ccccc2-c2nnn[nH]2)cc1)[C@H](C(=O)O)C(C)C

Ki [18]: 730 nM
Ki [20]: 20 nM
Structure (SMILES): CCCCCN(C(=O)NC)c1ccc2nc(CCCC)n(Cc3ccc(NC(=O)c4c(Cl)ccc(Cl)c4C(=O)O)cc3)c2c1
ED30 [19]: 2 mg/kg

Ki [21]: 0.8 µM
Structure (SMILES): CCCCc1nc(Cl)c(C(=O)O)n1Cc1cccc2c1ccn2-c1ccccc1-c1nn[nH]n1
Kb [6]: 0.068 nM
ED50 [22]: 0.22 µmol/kg
